Experimental data as given in publication PMC6838876 (Heliyon, 2019).
Marks after values point to notes of the source that are not given here. Each block holds one compound with its values, some of them ahead of it.

What was measured:
[1] = Urinary excretion rate after oral gavage to non-fasted rats (HPLC of urine, free and conjugated forms); format: in vivo, Male Wistar rats; settings: 40 mg/kg BW gavage; for Total urinary excretion rate at 48 h: all free and conjugated HAs
Protocol: The urine samples were stored at -80 °C until analysis. The rats were fed the AIN-93M diet throughout the experiment. This study was approved by the Animal Care Committee of Kindai University (permit number KABT-24-002), and the animals were maintained in accordance with the guidelines. Sample size, dose, and duration of urine collection were determined on the basis of our preliminary experiments.
The HA composition in urine was determined by the method described by Zhao et al. with a modification. […] The urine sample (20 μL) was added to 360 μL of acetic acid buffer (pH 5.0) containing 10 μg/mL sinapinic acid (internal standard) and 20 μL of acetic acid buffer (pH 5.0). The mixed solution was filtered through a 0.20 μm disposable syringe filter unit. The filtrate was analyzed by HPLC to quantify free forms of the HAs. Enzymatic hydrolysis was used to determine conjugated forms (glucuronidated and/or sulfated forms). The urine sample (20 μL) was added to 360 μL of acetic acid buffer (pH 5.0) containing 10 μg/mL sinapinic acid (internal standard) and 20 μL of β-glucuronidase type H-2 (containing both β-glucuronidase and sulfatase activity). […] The mixture was saturated with nitrogen gas and incubated at 37 °C for 2 h, followed by filtration through a 0.20 μm disposable syringe filter unit. The filtrate was analyzed by HPLC and the total amount of HAs (free forms and conjugated forms) was quantified. The conjugated HA levels were calculated by subtracting the amount of HA free forms from the total amount of HAs. […] The separation was performed using a 0.1% (v/v) trifluoroacetic acid–methanol solution (75:25, v/v) as the mobile phase at a flow rate of 1.0 mL/min at 40 °C. The injection volume was 10 μL. p-Coumaric acid was detected at 309 nm and the other HAs as well as sinapinic acid were detected at 325 nm based on the maximum absorbance. The urinary excretion rate was calculated as the percentage of the dose (mol/mol).

[2] = rats fed supplemented diet; cited from earlier work
[3] = set-up: method as in PMID 16608213; settings: fasted rats, cited from earlier work
[4] = set-up: method as in PMID 12097677, PMID 12730422; settings: cited from earlier work

Chlorogenic acid excreted in the urine at 48 h ([1]; urine 0-48 h, free form, mean ± SE n = 4, 40 mg/kg): 0.04 ± 0.005^a % of the dose
Chlorogenic acid excreted in the urine at 48 h ([1]; urine 0-48 h, free form, mean ± SE n = 4, listed as chlorogenic acid, 40 mg/kg): 0.04 % of the dose
Structure (SMILES): O=C(/C=C/c1ccc(O)c(O)c1)O[C@@H]1C[C@](O)(C(=O)O)C[C@@H](O)[C@H]1O [Chlorogenic acid, chlorogenic acid]
Urinary excretion of chlorogenic acid or the total amount of caffeic, ferulic, and isoferulic acids [2]: less than 1 % of the chlorogenic acid intake

Caffeic acid urinary excretion rate ([1]; urine 0-6 h): 7.1 % of the dose
Structure (SMILES): O=C(O)/C=C/c1ccc(O)c(O)c1 [Caffeic acid, caffeic acid]

p-Coumaric acid urinary excretion rate ([1]; urine 0-6 h): 14.2 % of the dose
Structure (SMILES): O=C(O)/C=C/c1ccc(O)cc1 [p-Coumaric acid, p-coumaric acid]
Ingested p-coumaric acid found in the urine as an intact form ([3]; gavage): 23%
Time after gavage within which the majority of p-coumaric acid was detected in urine [3]: ≤ 4 h

Total urinary excretion rate at 48 h ([1]; mean ± SE n = 4, 40 mg/kg): 73.2 ± 2.1 % of the dose
Total urinary excretion rate at 48 h ([1]; mean ± SE n = 4, listed as ferulic acid, 40 mg/kg): 73.2 % of the dose
Ferulic acid excreted in the urine at 48 h ([1]; urine 0-48 h, free form, mean ± SE n = 4): 3.01 ± 0.38^a % of the dose
Ferulic acid conjugates excreted in the urine at 48 h ([1]; urine 0-48 h, mean ± SE n = 4): 70.2 ± 6.8^b % of the dose
Ferulic acid conjugates urinary excretion rate ([1]; urine 0-6 h): 64.1 % of the dose
Ferulic acid urinary excretion rate ([1]; urine 0-6 h): 3.0 % of the dose
Percentage of conjugates in the total urinary excretion ([1]; urine at 48 h): 96%
Structure (SMILES): COc1cc(/C=C/C(=O)O)ccc1O [Ferulic acid, ferulic acid]
Ingested ferulic acid recovered as conjugated forms in the urine [4]: 50–70%
